In patent US12448388B2, “PRMT5 inhibitors and uses thereof” (Gilead Sciences, Inc., priority 2023, dated 2025):
Where two headings read alike, the source gives them in different places.

Tests used:
[1] = tested on: HCT116 MTAP-deleted cell lines; test: Cell viability assay (CellTiter-Glo, 7 days), HCT116 MTAP-deleted; format: cell-based; conditions: Homo sapiens, HCT-116, HCT116 MTAP-deleted, class symbols, read-out: CC50
In short: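 Read-out was CellTiter-Glo luminescence after a 7-day incubation (37 °C, 5% CO2) of HCT116 cells, MTAP-deleted or WT, on dose-response compound plates. CC50 values come from each line; where marked *, selectivity is overstated because poor solubility impaired the WT CC50 measurement.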

[2] = tested on: Symmetric Di-methyl Arginine (SDMA) signal (PRMT5 inhibition) in HCT116 MTAP-deleted cells; test: Symmetric di-methyl arginine image-based high content screen assay (SDMA assay), HCT116 MTAP-deleted; format: cell-based; conditions: for EC50: Homo sapiens, HCT-116, HCT116 MTAP-deleted, class symbols
In short: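 Read-out is imaging of per-cell mean SDMA immunofluorescence (Alexa 488), with cells segmented by DAPI. Cells, MTAP-deleted or wild-type HCT116, were exposed to compound for 3 days at 37 °C before fixation. EC50 derived by 4-parameter non-linear logistic regression.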

[3] = HCT116 WT vs HCT116 MTAP-deleted

Row | EC50 selectivity ([2]; HCT116 WT versus HCT116 MTAP-deleted) | EC50 [2] | EC50 selectivity [2, 3] | SMILES | CC50 ([1]; cell viability) | CC50 ([1]; cell viability assay)
1 | 447 | ≤ 1 nM | – | CN(C(=O)c1cc2c(cc1F)nc(N)c1cncn12)[C@@H]1COc2cc(-n3cnc(C(F)(F)F)c3)ccc21 [Ff-325, (S)-4-amino-7-fluoro-N-methyl-N-(6-(4-(trifluoromethyl)-1H-imidazol-1-yl)-2,3-dihydrobenzofuran-3-yl)imidazo[1,5-a]quinoxaline-8-carboxamide] | < 100 nM | –
2 | – | ≤ 1 nM | 65 | Nc1nc2ccc(C(=O)N(CC3CC3)[C@@H]3COc4cc(C(F)(F)F)ccc43)cc2n2cncc12 [Ff-407, (S)-4-amino-N-(cyclopropylmethyl)-N-[(3S)-6-(trifluoromethyl)-2,3-dihydrobenzofuran-3-yl]imidazo[1,5-a]quinoxaline-8-carboxamide] | – | < 100 nM
3 | – | 1 to 5 nM | 112 | Cc1ncn2c1c(N)nc1cnc(C(=O)N(C)[C@@H]3COc4cc(C(F)(F)F)ccc43)cc12 [Ff-502, (S)-4-amino-N,3-dimethyl-N-(6-(trifluoromethyl)-2,3-dihydrobenzofuran-3-yl)imidazo[1,5-a]pyrido[3,4-e]pyrazine-8-carboxamide] | – | < 100 nM
4 | – | 1 to 5 nM | 157 | CN(C(=O)c1cc2c(cc1F)nc(N)c1cncn12)[C@@H]1COc2cc(-n3cc(C(F)(F)F)cn3)ccc21 [Ff-545, (S)-4-amino-7-fluoro-N-methyl-N-(6-(4-(trifluoromethyl)-1H-pyrazol-1-yl)-2,3-dihydrobenzofuran-3-yl)imidazo[1,5-a]quinoxaline-8-carboxamide] | – | < 100 nM
5 | – | ≤ 1 nM | 707 | CN(C(=O)c1cc2c(cc1F)nc(N)c1cncn12)[C@@H]1COc2cc(Cl)ccc21 [Ff-567, (S)-4-amino-N-(6-chloro-2,3-dihydrobenzofuran-3-yl)-7-fluoro-N-methylimidazo[1,5-a]quinoxaline-8-carboxamide] | – | < 100 nM
6 | – | > 5 nM | 457 | CN(C(=O)c1cc2c(cc1F)nc(N)c1cncn12)[C@@H]1COc2cc(F)ccc21 [Ff-568, (S)-4-amino-N-(6-fluoro-2,3-dihydrobenzofuran-3-yl)-7-fluoro-N-methylimidazo[1,5-a]quinoxaline-8-carboxamide] | – | 100 to 1000 nM
7 | – | 1 to 5 nM | 274 | Cc1ncn2c1c(N)nc1cnc(C(=O)N3CCC4(CC4)[C@@H]4Oc5cc(OC(F)(F)F)ccc5[C@@H]43)cc12 [Ff-617, (4-amino-3-methylimidazo[1,5-a]pyrido[3,4-e]pyrazin-8-yl)((4aS,9bS)-7-(trifluoromethoxy)-2,3,4a,9b-tetrahydro-1H-spiro[benzofuro[3,2-b]pyridine-4,1′-cyclopropan]-1-yl)methanone] | – | < 100 nM
8 | – | 1 to 5 nM | 58 | Cc1ncn2c1c(N)nc1cnc(C(=O)N3C[C@H](C)C[C@@H]4Oc5cc(OC(F)(F)F)ccc5[C@@H]43)cc12 [Ff-619, (4-amino-3-methylimidazo[1,5-a]pyrido[3,4-e]pyrazin-8-yl)((3R,4aS,9bS)-3-methyl-7-(trifluoromethoxy)-3,4,4a,9b-tetrahydrobenzofuro[3,2-b]pyridin-1(2H)-yl)methanone] | – | < 100 nM
9 | – | > 5 nM | 27 | Cc1ncn2c1c(N)nc1cnc(C(=O)N3C[C@H](C)C[C@@H]4Oc5cc(C(F)(F)F)ccc5[C@@H]43)cc12 [Ff-624, (4-amino-3-methylimidazo[1,5-a]pyrido[3,4-e]pyrazin-8-yl)((3R,4aS,9bS)-3-methyl-7-(trifluoromethyl)-3,4,4a,9b-tetrahydrobenzofuro[3,2-b]pyridin-1(2H)-yl)methanone] | – | 100 to 1000 nM

More lines, now with the values behind:

Row | SMILES | EC50 selectivity ([2]; HCT116 WT versus HCT116 MTAP-deleted) | EC50 [2] | EC50 selectivity [2, 3] | CC50 ([1]; cell viability) | CC50 ([1]; cell viability assay)
10 | Nc1nc2cnc(C(=O)N3CCC[C@@H]4Oc5cc(OC(F)(F)F)c(F)cc5[C@@H]43)cc2n2cncc12 [Ff-378, (4-aminoimidazo[1,5-a]pyrido[3,4-e]pyrazin-8-yl)((4aS,9bS)-8-fluoro-7-(trifluoromethoxy)-3,4,4a,9b-tetrahydrobenzofuro[3,2-b]pyridin-1(2H)-yl)methanone] | – | ≤ 1 nM | 106 | – | < 100 nM
11 | Nc1nc2ccc(C(=O)N(Cc3ccc(C(F)(F)F)cc3F)C3COC3)cc2n2cncc12 [Ff-410, 4-amino-N-[[2-fluoro-4-(trifluoromethyl)phenyl]methyl]-N-(oxetan-3-yl)imidazo[1,5-a]quinoxaline-8-carboxamide] | – | > 5 nM | 453 | – | 100 to 1000 nM
12 | CC(C)N(Cc1ccc(C(F)(F)F)cc1F)C(=O)c1ccc2nc(N)c3cncn3c2c1 [Ff-412, 4-amino-N-[[2-fluoro-4-(trifluoromethyl)phenyl]methyl]-N-isopropyl-imidazo[1,5-a]quinoxaline-8-carboxamide] | – | ≤ 1 nM | 252 | – | < 100 nM
13 | Nc1nc2cc(F)c(C(=O)N3CCC[C@@H]4Oc5c(ccc(C(F)(F)F)c5F)[C@@H]43)cc2n2cncc12 [Ff-501, (4-amino-7-fluoroimidazo[1,5-a]quinoxalin-8-yl)((4aS,9bS)-6-fluoro-7-(trifluoromethyl)-3,4,4a,9b-tetrahydrobenzofuro[3,2-b]pyridin-1(2H)-yl)methanone] | – | ≤ 1 nM | 115 | – | < 100 nM
14 | CN(C(=O)c1cc2c(cc1F)nc(N)c1cncn12)[C@@H]1COc2cc(C#CC3(C)COC3)ccc21 [Ff-516, (S)-4-amino-7-fluoro-N-methyl-N-(6-((3-methyloxetan-3-yl)ethynyl)-2,3-dihydrobenzofuran-3-yl)imidazo[1,5-a]quinoxaline-8-carboxamide] | – | 1 to 5 nM | 337 | – | < 100 nM
15 | Cc1cn(-c2ccc3c(c2)OC[C@H]3N(C)C(=O)c2cc3c(cc2F)nc(N)c2cncn23)cn1 [Ff-544, (S)-4-amino-7-fluoro-N-methyl-N-(6-(4-methyl-1H-imidazol-1-yl)-2,3-dihydrobenzofuran-3-yl)imidazo[1,5-a]quinoxaline-8-carboxamide] | – | 1 to 5 nM | 109 | – | < 100 nM
16 | CN(C(=O)c1ccc2nc(N)c3cncn3c2c1)[C@@H]1COc2cc(C3CC3)ccc21 [Ff-548, (S)-4-amino-N-(6-cyclopropyl-2,3-dihydrobenzofuran-3-yl)-N-methylimidazo[1,5-a]quinoxaline-8-carboxamide] | – | 1 to 5 nM | 102 | – | 100 to 1000 nM
17 | CN(C(=O)c1ccc2nc(N)c3cncn3c2c1)[C@@H]1COc2cc(Cl)ccc21 [Ff-566, (S)-4-amino-N-(6-chloro-2,3-dihydrobenzofuran-3-yl)-N-methylimidazo[1,5-a]quinoxaline-8-carboxamide] | – | 1 to 5 nM | 497 | – | 100 to 1000 nM
18 | Nc1nc2ccc(C(=O)N3CCC4(CC4)[C@@H]4Oc5cc(OC(F)(F)F)ccc5[C@@H]43)cc2n2cncc12 [Ff-615, (4-aminoimidazo[1,5-a]quinoxalin-8-yl)((4aS,9bS)-7-(trifluoromethoxy)-2,3,4a,9b-tetrahydro-1H-spiro[benzofuro[3,2-b]pyridine-4,1′-cyclopropan]-1-yl)methanone] | – | ≤ 1 nM | 158 | – | < 100 nM
19 | C[C@@H]1C[C@@H]2Oc3cc(OC(F)(F)F)ccc3[C@@H]2N(C(=O)c2ccc3nc(N)c4cncn4c3c2)C1 [Ff-616, (4-aminoimidazo[1,5-a]quinoxalin-8-yl)((3R,4aS,9bS)-3-methyl-7-(trifluoromethoxy)-3,4,4a,9b-tetrahydrobenzofuro[3,2-b]pyridin-1(2H)-yl)methanone] | – | ≤ 1 nM | 162 | – | < 100 nM
20 | Nc1nc2cnc(C(=O)N3CCC4(CC4)[C@@H]4Oc5cc(OC(F)(F)F)ccc5[C@@H]43)cc2n2cncc12 [Ff-618, (4-aminoimidazo[1,5-a]pyrido[3,4-e]pyrazin-8-yl)((4aS,9bS)-7-(trifluoromethoxy)-2,3,4a,9b-tetrahydro-1H-spiro[benzofuro[3,2-b]pyridine-4,1′-cyclopropan]-1-yl)methanone] | – | 1 to 5 nM | 294 | – | < 100 nM
21 | Nc1nc2cc(F)c(C(=O)N3CC[C@H]4C[C@@H]3c3ccc(C(F)(F)F)c(F)c3O4)cc2n2cncc12 [Ff-634, (4-amino-7-fluoroimidazo[1,5-a]quinoxalin-8-yl)((2S,6R)-10-fluoro-9-(trifluoromethyl)-3,4-dihydro-2H-2,6-methanobenzo[b][1,5]oxazocin-5(6H)-yl)methanone] | – | ≤ 1 nM | 171 | – | < 100 nM
22 | [2H]C1([2H])C[C@H]2C[C@H](c3ccc(C(F)(F)F)cc3O2)N1C(=O)c1cc2c(cc1F)nc(N)c1cncn12 [Ff-637, (4-amino-7-fluoroimidazo[1,5-a]quinoxalin-8-yl)((2S,6R)-9-(trifluoromethyl)-3,4-dihydro-2H-2,6-methanobenzo[b][1,5]oxazocin-5(6H)-yl-4,4-d2)methanone] | – | ≤ 1 nM | 182 | – | < 100 nM
23 | Cc1ncc2c(N)nc3ccc(C(=O)N4CCC[C@@H]5Oc6cc(OC(F)(F)F)ccc6[C@@H]54)cc3n12 [Ff-640, (4-amino-1-methylimidazo[1,5-a]quinoxalin-8-yl)((4aS,9bS)-7-(trifluoromethoxy)-3,4,4a,9b-tetrahydrobenzofuro[3,2-b]pyridin-1(2H)-yl)methanone] | – | 1 to 5 nM | 415 | – | < 100 nM
